This note sets out measurements from patent US10017481B2, “Conformationally constrained, fully synthetic macrocyclic compounds” (POLYPHOR AG, priority 2012, dated 2018).

Common to all, as to format: in vitro ADME
The nature of series [1]: Plasma stability assay, CD-1 mouse plasma. The note with it: for Plasma Stability 240 min mouse/(rat) [% remain.]: CD-1 mouse plasma, 10 μM, 37° C.; for half-life at 10 μM: both sexes, CD-1, mouse, plasma. As for the experimental part:
(§1) 5. Plasma and Metabolic Stability Assays Example compounds were dissolved in DMSO/H2O 90:10 to a final concentration of 10 mM for plasma stability determination and metabolic stability determination. The assays were conducted according to literature precedents (F. P. Guengerich, Analysis and Characterization of Enzymes; in: Principles and Methods of Toxicology, A. W. Hayes (Ed.) Raven Press: New York, 1989, 777-813; R. Singh et al., In vitro metabolism of a potent HIV-protease inhibitor (141W94) using rat, monkey and human liver S9, Rapid Commun. Mass Spectrom. 1996, 10, 1019-1026). Plasma Stability Assay Human plasma (Blutspendedienst SRK, Basel) and CD-1 mouse plasma (mixed gender pool >50 animals, Innovative Research, Calif., USA) are both sodium citrate stabilized. The assay is performed in triplicates at 10 μM compound concentration and 37° C. Samples are taken at 0, 15, 30, 60, 120 and 240 minutes and stopped by precipitation with 3 volumes of acetonitrile/formic acid 98:2 and shaking (2 minutes, 600 rpm) followed by filtration (−20 mm Hg). The filtrate is collected. The filtrate (100 μL) is evaporated and reconstituted in the suitable solvent (cf. Table 33) to be analyzed by HPLC/MS/MS. The resulting peak area counts are expressed in percent of the 0 value and used to determine the endpoint stability in % and the half life T in minutes. In order to monitor assay integrity the degradation of propantheline is assayed with every experimental set.

Series [2] in a line: Metabolic stability assay, human liver microsomes. The note with it: human microsomes, 10 μM, 37° C.; for half-life at 10 μM: both sexes, liver microsomes, 1 mg/ml protein, read-out: Metabolic Stability T ½ [min] hum. The protocol:
(§2) 5. Plasma and Metabolic Stability Assays
(§3) Example compounds were dissolved in DMSO/H2O 90:10 to a final concentration of 10 mM for plasma stability determination and metabolic stability determination.
(§4) The assays were conducted according to literature precedents (F. P. Guengerich, Analysis and Characterization of Enzymes; in: Principles and Methods of Toxicology, A. W. Hayes (Ed.) Raven Press: New York, 1989, 777-813; R. Singh et al., In vitro metabolism of a potent HIV-protease inhibitor (141W94) using rat, monkey and human liver S9, Rapid Commun. Mass Spectrom. 1996, 10, 1019-1026).
(§5) Metabolic Stability Assay
(§6) Microsomes from a human 50 donor mixed gender pool and 1:1 mixtures of microsomes from CD-1 mouse single-gender pools are purchased from Celsis (Belgium). The enzymatic reaction is performed in a buffer containing an NADPH regeneration system and microsomes with the following end concentrations: 100 mM potassium phosphate buffer (all from Sigma), 1 mg/mL glucose-6-phosphate, 1 mg/mL β-nicotinamide adenine dinucleotide phosphate (NADP), 0.65 mg/mL magnesium chloride, 0.8 units/mL of glucose-6-phosphate dehydrogenase (prediluted with 5 mM citrate buffer), 10 μM compound and 1 mg/ml microsomal protein. Compounds are incubated at 37° C. in duplicates and samples are taken after 0, 5, 10, 20 and 60 minutes. After acetonitrile precipitation (3 volumes), shaking (2 minutes, 600 rpm) followed by centrifugation (10 minutes, 3200 g), the supernatant is dried reconstituted in the suitable solvent (cf. Table 33) and analyzed by HPLC/MS/MS. Metabolic turnover is expressed in % of the initial 0 minutes value and half life T½ (min) is calculated. Verapamil for human and propranolol for mouse are used as reference and are assayed with every experimental set.
For orientation: Liver microsomes are vesicles of endoplasmic reticulum, rich in cytochrome P450 enzymes.

Series [3] is described as follows: Metabolic stability assay, CD-1 mouse microsomes. The note with it: CD-1 mouse microsomes, 10 μM, 37° C.; for half-life at 10 μM: both sexes, 1 mg/ml protein, read-out: Metabolic Stability T ½ [min] mouse/(rat). As for the experimental part:
as §2, §3, §4, §5, §6

Series [4] in a line: Plasma stability assay, human plasma. The following applies: for Plasma Stability 240 min hum [% remain.]: human plasma, 10 μM, 37° C.; for half-life at 10 μM: human, plasma. The protocol:
as §1

Turning to `C[C@H]1COc2cccc(c2)-c2cccc(c2)C(=O)N(C)[C@H](C(=O)O)CCC(=O)N1` [Ex. 69, (9S,14S)-9,15-dimethyl-11,16-dioxo-7-oxa-10,15-diazatricyclo[15.3.1.1^2,6]docosa-1(21),2(22),3,5,17,19-hexaene-14-carboxylic acid], in series [1], the “Plasma Stability 240 min mouse/(rat) [% remain.]” value was 45 % remain and the half-life at 10 μM amounted to 3.33 h. Also, in series [2], the half-life at 10 μM was above 60 min and the “Metabolic Stability 60 min hum [% remain.]” value is reported as 100 % remain. For the same compound, in series [3], the “Metabolic Stability 60 min mouse/(rat) [% remain.]” value is recorded as 100 % remain and the half-life at 10 μM was above 60 min. For the same compound, in series [4], the “Plasma Stability 240 min hum [% remain.]” value is 91 % remain and the half-life at 10 μM is above 4 h.
For `CNC(=O)[C@@H]1CCC(=O)N[C@@H](C)COc2cccc(c2)-c2cccc(c2)C(=O)N1C` [Ex. 70, (9S,14S)-N,9,15-trimethyl-11,16-dioxo-7-oxa-10,15-diazatricyclo[15.3.1.1^2,6]docosa-1(21),2(22),3,5,17,19-hexaene-14-carboxamide], in series [1], the “Plasma Stability 240 min mouse/(rat) [% remain.]” value stood at 61 % remain and the half-life at 10 μM is above 4 h. In addition, in series [2], the half-life at 10 μM is above 60 min and the “Metabolic Stability 60 min hum [% remain.]” value came to 100 % remain. Further, in series [3], the “Metabolic Stability 60 min mouse/(rat) [% remain.]” value came to 77 % remain and the half-life at 10 μM was above 60 min. In addition, in series [4], the “Plasma Stability 240 min hum [% remain.]” value was 99 % remain and the half-life at 10 μM was above 4 h.
Regarding `C[C@H]1COc2cccc(c2)-c2cccc(c2)C(=O)N(C)[C@H](C(N)=O)CCC(=O)N1` [Ex. 71, (9S,14S)-9,15-dimethyl-11,16-dioxo-7-oxa-10,15-diazatricyclo[15.3.1.1^2,6]docosa-1(21),2(22),3,5,17,19-hexaene-14-carboxamide], in series [1], the “Plasma Stability 240 min mouse/(rat) [% remain.]” value worked out at 92 % remain and the half-life at 10 μM was above 4 h. Moreover, in series [2], the half-life at 10 μM was above 60 min and the “Metabolic Stability 60 min hum [% remain.]” value turned out to be 100 % remain. In series [3], the “Metabolic Stability 60 min mouse/(rat) [% remain.]” value is listed as 89 % remain and the half-life at 10 μM was above 60 min. Besides, in series [4], the “Plasma Stability 240 min hum [% remain.]” value worked out at 100 % remain and the half-life at 10 μM is above 4 h.
`C[C@H]1COc2cccc(c2)-c2cccc(c2)C(=O)N(C)[C@H](C(=O)Nc2ccccc2)CCC(=O)N1` [Ex. 72, (9S,14S)-9,15-dimethyl-11,16-dioxo-N-phenyl-7-oxa-10,15-diazatricyclo[15.3.1.1^2,6] docosa-1(21),2(22),3,5,17,19-hexaene-14-carboxamide]: in series [1], the “Plasma Stability 240 min mouse/(rat) [% remain.]” value worked out at 65 % remain and the half-life at 10 μM is above 4 h. In addition, in series [2], the half-life at 10 μM came out at 22 min and the “Metabolic Stability 60 min hum [% remain.]” value is listed as 14 % remain. In series [3], the “Metabolic Stability 60 min mouse/(rat) [% remain.]” value was 30 % remain and the half-life at 10 μM was found to be 35 min. Further, in series [4], the “Plasma Stability 240 min hum [% remain.]” value is recorded as 100 % remain and the half-life at 10 μM is above 4 h.
On to `C[C@H]1COc2cccc(c2)-c2cccc(c2)C(=O)N(C)[C@H](C(=O)NCc2cccc3ccccc23)CCC(=O)N1` [Ex. 74, (9S,14S)-9,15-dimethyl-N-(1-naphthylmethyl)-11,16-dioxo-7-oxa-10,15-diazatricyclo[15.3.1.1^2,6]docosa-1(21),2(22),3,5,17,19-hexaene-14-carboxamide], for which, in series [1], the “Plasma Stability 240 min mouse/(rat) [% remain.]” value came out at 67 % remain and the half-life at 10 μM is above 4 h. In series [2], the half-life at 10 μM worked out at 7 min and the “Metabolic Stability 60 min hum [% remain.]” value is 1 % remain. Also, in series [3], the “Metabolic Stability 60 min mouse/(rat) [% remain.]” value worked out at 0 % remain and the half-life at 10 μM came to 3 min. In addition, in series [4], the “Plasma Stability 240 min hum [% remain.]” value is recorded as 100 % remain and the half-life at 10 μM was above 4 h.
For the compound `C[C@H]1COc2cccc(c2)-c2cccc(c2)C(=O)N(C)[C@H](C(=O)NCc2cccnc2)CCC(=O)N1` [Ex. 75, (9S,14S)-9,15-dimethyl-11,16-dioxo-N-(3-pyridinylmethyl)-7-oxa-10,15-diazatricyclo[15.3.1.1^2,6]docosa-1(21),2(22),3,5,17,19-hexaene-14-carboxamide], in series [1], the “Plasma Stability 240 min mouse/(rat) [% remain.]” value is recorded as 55 % remain and the half-life at 10 μM is above 4 h. Moreover, in series [2], the half-life at 10 μM was 21 min and the “Metabolic Stability 60 min hum [% remain.]” value was found to be 12 % remain. In series [3], the “Metabolic Stability 60 min mouse/(rat) [% remain.]” value amounted to 48 % remain and the half-life at 10 μM was 53 min. For the same compound, in series [4], the “Plasma Stability 240 min hum [% remain.]” value was 93 % remain and the half-life at 10 μM is above 4 h.
As to `COCCNC(=O)[C@@H]1CCC(=O)N[C@@H](C)COc2cccc(c2)-c2cccc(c2)C(=O)N1C` [Ex. 77, (9S,14S)-N-(2-methoxyethyl)-9,15-dimethyl-11,16-dioxo-7-oxa-10,15-diazatricyclo[15.3.1.1^2,6]docosa-1(21),2(22),3,5,17,19-hexaene-14-carboxamide], in series [1], the “Plasma Stability 240 min mouse/(rat) [% remain.]” value came to 85 % remain and the half-life at 10 μM was above 4 h. In addition, in series [2], the half-life at 10 μM came to 44 min and the “Metabolic Stability 60 min hum [% remain.]” value is given as 41 % remain. For the same compound, in series [3], the “Metabolic Stability 60 min mouse/(rat) [% remain.]” value is 75 % remain and the half-life at 10 μM was above 60 min. In series [4], the “Plasma Stability 240 min hum [% remain.]” value worked out at 96 % remain and the half-life at 10 μM was above 4 h.
For the compound `C[C@H]1COc2cccc(c2)-c2cccc(c2)C(=O)N(C)[C@H](C(=O)NCC(F)(F)F)CCC(=O)N1` [Ex. 78, (9S,14S)-9,15-dimethyl-11,16-dioxo-N-(2,2,2-trifluoroethyl)-7-oxa-10,15-diazatricyclo[15.3.1.1^2,6]docosa-1(21),2(22),3,5,17,19-hexaene-14-carboxamide], in series [1], the “Plasma Stability 240 min mouse/(rat) [% remain.]” value was 86 % remain and the half-life at 10 μM is above 4 h. In addition, in series [2], the half-life at 10 μM is above 60 min and the “Metabolic Stability 60 min hum [% remain.]” value worked out at 99 % remain. In series [3], the “Metabolic Stability 60 min mouse/(rat) [% remain.]” value came to 92 % remain and the half-life at 10 μM is above 60 min. In addition, in series [4], the “Plasma Stability 240 min hum [% remain.]” value is on record as 100 % remain and the half-life at 10 μM is above 4 h.
As to `C[C@H]1COc2cccc(c2)-c2cccc(c2)C(=O)N(C)[C@H](C(=O)NC2CC2)CCC(=O)N1` [Ex. 79, (9S,14S)-N-cyclopropyl-9,15-dimethyl-11,16-dioxo-7-oxa-10,15-diazatricyclo[15.3.1.1^2,6]docosa-1(21),2(22),3,5,17,19-hexaene-14-carboxamide], in series [1], the “Plasma Stability 240 min mouse/(rat) [% remain.]” value amounted to 60 % remain and the half-life at 10 μM is above 4 h. In addition, in series [2], the half-life at 10 μM was above 60 min and the “Metabolic Stability 60 min hum [% remain.]” value turned out to be 95 % remain. For the same compound, in series [3], the “Metabolic Stability 60 min mouse/(rat) [% remain.]” value is 73 % remain and the half-life at 10 μM is above 60 min. Besides, in series [4], the “Plasma Stability 240 min hum [% remain.]” value was 100 % remain and the half-life at 10 μM is above 4 h.
Take `CC(C)CNC(=O)[C@@H]1CCC(=O)N[C@@H](C)COc2cccc(c2)-c2cccc(c2)C(=O)N1C` [Ex. 80, (9S,14S)-N-isobutyl-9,15-dimethyl-11,16-dioxo-7-oxa-10,15-diazatricyclo [15.3.1.1^2,6]docosa-1(21),2(22),3,5,17,19-hexaene-14-carboxamide]: in series [1], the “Plasma Stability 240 min mouse/(rat) [% remain.]” value came out at 84 % remain and the half-life at 10 μM was above 4 h. Besides, in series [2], the half-life at 10 μM is 19 min and the “Metabolic Stability 60 min hum [% remain.]” value amounted to 6 % remain. Besides, in series [3], the “Metabolic Stability 60 min mouse/(rat) [% remain.]” value turned out to be 19 % remain and the half-life at 10 μM came to 24 min. In addition, in series [4], the “Plasma Stability 240 min hum [% remain.]” value turned out to be 90 % remain and the half-life at 10 μM is above 4 h.
